Marks after values point to notes of the source that are not given here.
Tests used:
human keratinocytes [1] = assay: Mitochondrial fragmentation in keratinocytes, UV Study (Example 2), TPEF imaging of NADH, PSD exponent β; format: cell-based; conditions: B3 10 mM, AceMet 500 uM, MeNAM 10 mM alone or 500 uM with B3; for Effect on UV-induced mitochondrial fragmentation in words: UV-exposed; for Mitochondrial Fragmentation (−) UV (3 days) / Mitochondrial Fragmentation (+) UV (4 days): keratinocytes; for Mitochondrial Fragmentation (−) UV (3 days): 3 days before UV exposure, control 1.30; for Mitochondrial Fragmentation (+) UV (4 days): 4 days after UV exposure (4 J/cm^2 UVA+UVB, 14 min daily), UV control 1.58
Experimental: Test compounds (B3, AceMet and MeNAM) were purchased from Sigma (St. Louis, Mo.). Cell culture growth media (Epilife media with calcium (Cat #MEPI500CA) and Epilife media supplement HKGS 100X (Cat #S-001-5)) was purchased from Thermofisher (Waltham, Mass.). Cryopreserved human keratinocytes cells (˜1×10^6 cells) were plated on 12-well glass bottom plates at a confluence of ˜15%. The cells were suspended in primary keratinocyte growth media (Epilife media with calcium) and incubated @ 37° C. for 1d (Day 0). At Day 1, cells began treatment with supplemented primary keratinocyte growth media (Epilife media with calcium supplemented with HKGS 100X; 25 ml total) without test compound (Control sample) or containing test compounds B3 (10 mM), MeNAM (10 mM), AceMet (500 uM), B3 (10 mM)+AceMet (500 uM) or B3 (10 mM)+MeNAM (500 uM). Cell treatment (25 ml media with or without test compounds as above) continued daily for 4 additional days (Non-UV Study—Example 1) or 2 additional days (UV Study—Example 2). For the UV Study, cells were subjected to UV treatment on Day 4 by replacing media with PBS, exposing cells to UV light (4 J/cm^2 of UVA+UVB) for 14 min and feeding cells with media with or without corresponding test compounds as defined above. UV treatments continued daily for 3 additional days (Days 5, 6 and 7). Image acquisition and analysis on all cell wells to assess mitochondrial fragmentation was conducted on Day 1, 3, 5 and 8.
(§1) For two-photon excited fluorescence (TPEF) imaging, cell cultures were placed in microscope-compatible micro-incubator system, which maintained 37° C. within a humidified environment throughout the imaging session.
HEPES buffering agent (Sigma) was added to cell cultures in primary keratinocyte growth medium before imaging, which maintained the pH of cell cultures throughout the imaging session. Images were obtained using a Leica TCS SP8 confocal microscope equipped with a tunable (680-1300 nm) titanium-sapphire laser (InSight Deep See; Spectra Physics; Mountain View, Calif.). Images (1024×1024 pixels; 386×386 μm) were acquired using water-immersion 25×objective (NA 0.95; 2.4 mm working distance), with simultaneous collection by two non-descanned photomultiplier tube (PMT) detectors using a filter cube containing filters from Chroma (Bellows Falls, Vt.), including a 700 nm short pass filter (ET700SP-2P) and a 495 nm dichroic mirror (495DCXR). To isolate NADH fluorescence, a 460(±20) nm emission filter (Chroma, ET460/40M-2P), corresponding to the NADH emission peak, was placed before one of the non-descanned detectors. NADH fluorescence images were acquired from this 460 nm channel using 755 nm excitation. FAD fluorescence was isolated using a 525(±25) nm emission filter (Chroma, ET525/50M-2P) for the other non-descanned detector and 860 nm excitation. The two-photon action cross section of NADH decreases by several orders of magnitude between 755 nm and 860 nm excitation, enabling an efficient isolation of FAD at longer wavelengths. The fluorescence lifetime images (512×512 pixels; 386×386 μm) corresponding to NADH were acquired under the same excitation and emission settings, using SymPho software. PMT gain was adjusted for each image to maximize contrast while preventing a saturated pixel intensity value. The PMT gain and laser power were recorded for each image and used to normalize fluorescence intensity.
To assess mitochondrial fragmentation, a previously established Fourier transform technique was used to obtain power spectral density (PSD) curves from each image. […]

human keratinocytes [2] = assay: Mitochondrial fragmentation in keratinocytes (Non-UV Study, Example 1), TPEF imaging of NADH, PSD exponent β; format: cell-based; conditions: no UV, B3 10 mM
Experimental: Test compounds (B3, AceMet and MeNAM) were purchased from Sigma (St. Louis, Mo.). Cell culture growth media (Epilife media with calcium (Cat #MEPI500CA) and Epilife media supplement HKGS 100X (Cat #S-001-5)) was purchased from Thermofisher (Waltham, Mass.). Cryopreserved human keratinocytes cells (˜1×10^6 cells) were plated on 12-well glass bottom plates at a confluence of ˜15%. The cells were suspended in primary keratinocyte growth media (Epilife media with calcium) and incubated @ 37° C. for 1d (Day 0). […]
as §1
HEPES buffering agent (Sigma) was added to cell cultures in primary keratinocyte growth medium before imaging, which maintained the pH of cell cultures throughout the imaging session. […] To isolate NADH fluorescence, a 460(±20) nm emission filter (Chroma, ET460/40M-2P), corresponding to the NADH emission peak, was placed before one of the non-descanned detectors. NADH fluorescence images were acquired from this 460 nm channel using 755 nm excitation. FAD fluorescence was isolated using a 525(±25) nm emission filter (Chroma, ET525/50M-2P) for the other non-descanned detector and 860 nm excitation. […]

For C[n+]1cccc(C(N)=O)c1 [MeNAM, 1-methylnicotinamide chloride], the “Effect on mitochondrial fragmentation in words, Non UV-exposed keratinocytes” value (shortened to “Effect … Non UV-exposed keratinocytes”) (human keratinocytes [1]) was “significantly reduces mitochondrial fragmentation”, the “Effect on UV-induced mitochondrial fragmentation in words” value (human keratinocytes [1]) was “effective at reducing this UV-induced effect down to control levels” and the “Mitochondrial Fragmentation (−) UV (3 days)” value (human keratinocytes [1]) was 1.15^a. The “Mitochondrial Fragmentation (+) UV (4 days)” value (human keratinocytes [1]) was 1.29^a,d.

With NC(=O)c1cccnc1 [B3, Nicotinamide] the “Mitochondrial Fragmentation” value (human keratinocytes [2]; keratinocytes after 5 days exposure, AceMet 500 uM, MeNAM 500 uM, higher value = less protection, control 1.88) was 1.67 ^a, the “Effect on mitochondrial fragmentation in words” value (human keratinocytes [2]; keratinocytes, 5 days, AceMet or MeNAM 500 uM) was “decreases mitochondrial fragmentation” and the “Effect … Non UV-exposed keratinocytes” value (human keratinocytes [1]) was “does not significantly reduce mitochondrial fragmentation”. The “Effect on UV-induced mitochondrial fragmentation in words” value (human keratinocytes [1]) was “effective at reducing this UV-induced effect down to control levels”, the “Mitochondrial Fragmentation (−) UV (3 days)” value (human keratinocytes [1]) was 1.18 and the “Mitochondrial Fragmentation (+) UV (4 days)” value (human keratinocytes [1]) was 1.34 ^d.

CSCC[C@H](NC(C)=O)C(=O)O [AceMet, N-acetylmethionine] was tested, and the “Effect … Non UV-exposed keratinocytes” value (human keratinocytes [1]) was “does not significantly reduce mitochondrial fragmentation”, the “Effect on UV-induced mitochondrial fragmentation in words” value (human keratinocytes [1]) was “increases mitochondrial fragmentation beyond UV-exposed levels” and the “Mitochondrial Fragmentation (−) UV (3 days)” value (human keratinocytes [1]) was 1.47^c,e. For the same compound, the “Mitochondrial Fragmentation (+) UV (4 days)” value (human keratinocytes [1]) was 1.76^c,e,h.
